Experimental data from the supplement of paper PMC10307832.

Assays:
Experiment in all cases: relative viability (nuclei count vs DMSO), 5 days (fraction); higher = more cells survive
[1] = system: NCI-H1395
Method in brief: (§1)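 A single step with final 0.05% Triton X-100, 1% formaldehyde and 1 ug/ml Hoechst fixed the cells and stained nuclei 5 days after treatment. Lung cancer cell lines in 1536-well plates had been treated by pin tool the day after seeding with one drug alone or a fixed anchor-drug dose plus five library-drug doses (not always all listed) in √10 steps, and nuclei were counted on 4× images. Relative viability is the ratio of nuclei in treated wells to nuclei in vehicle wells, taken as the median of duplicate plates.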

[2] = system: NCI-H647
Method in brief: as §1

[3] = system: HCC-366
Method in brief: as §1

[4] = system: LU99A
Method in brief: as §1

[5] = system: CAL-12T
Method in brief: as §1

[6] = system: NCI-H1666
Method in brief: as §1

[7] = system: NCI-H520
Method in brief: as §1

[8] = system: NCI-H522
Method in brief: as §1

[9] = system: PC-3 [JPC-3]
Method in brief: as §1

[10] = system: HARA
Method in brief: as §1

[11] = system: LC-2-ad
Method in brief: as §1

[12] = system: HCC-15
Method in brief: as §1

[13] = system: NCI-H1975
Method in brief: as §1

[14] = system: NCI-H1993
Method in brief: as §1

[15] = system: NCI-H1734
Method in brief: as §1

[16] = system: NCI-H3122
Method in brief: as §1

[17] = system: NCI-H2228
Method in brief: as §1

[18] = system: PC-14
Method in brief: as §1

[19] = system: NCI-H661
Method in brief: as §1

[20] = system: H3255
Method in brief: as §1

[21] = system: NCI-H1944
Method in brief: as §1

[22] = system: SK-LU-1
Method in brief: as §1

[23] = system: COR-L 105
Method in brief: as §1

[24] = system: NCI-H838
Method in brief: as §1

CCCCCCCCCCCC1=C(O)C(=O)C=C(O)C1=O [Embelin] + Cc1cc(Nc2cc(N3CCN(C)CC3)nc(Sc3ccc(NC(=O)C4CC4)cc3)n2)n[nH]1 [Tozasertib] (partner 0.1 µM)
relative viability ([1]; first compound 0.08 µM): 0.766 | relative viability ([1]; first compound 0.8 µM): 0.725 | relative viability ([1]; first compound 2.53 µM): 0.832 | relative viability ([1]; first compound 8 µM): 0.722 | relative viability ([2]; first compound 0.08 µM): 0.361 | relative viability ([2]; first compound 0.8 µM): 0.26 | relative viability ([2]; first compound 2.53 µM): 0.288 | relative viability ([2]; first compound 8 µM): 0.245 | relative viability ([3]; first compound 0.08 µM): 0.108 | relative viability ([3]; first compound 0.8 µM): 0.188 | relative viability ([3]; first compound 2.53 µM): 0.177 | relative viability ([3]; first compound 8 µM): 0.113 | relative viability ([4]; first compound 0.08 µM): 0.331 | relative viability ([4]; first compound 0.8 µM): 0.261 | relative viability ([4]; first compound 2.53 µM): 0.277 | relative viability ([4]; first compound 8 µM): 0.264 | relative viability ([5]; first compound 0.08 µM): 0.315 | relative viability ([5]; first compound 0.8 µM): 0.406 | relative viability ([5]; first compound 2.53 µM): 0.372 | relative viability ([5]; first compound 8 µM): 0.358 | relative viability ([6]; first compound 0.08 µM): 0.615 | relative viability ([6]; first compound 0.8 µM): 0.68 | relative viability ([6]; first compound 2.53 µM): 0.639 | relative viability ([6]; first compound 8 µM): 0.615 | relative viability ([7]; first compound 0.08 µM): 0.56 | relative viability ([7]; first compound 0.8 µM): 0.459 | relative viability ([7]; first compound 2.53 µM): 0.467 | relative viability ([7]; first compound 8 µM): 0.376 | relative viability ([8]; first compound 0.08 µM): 0.617 | relative viability ([8]; first compound 0.8 µM): 0.577 | relative viability ([8]; first compound 2.53 µM): 0.513 | relative viability ([8]; first compound 8 µM): 0.532 | relative viability ([9]; first compound 0.08 µM): 0.843 | relative viability ([9]; first compound 0.8 µM): 0.944 | relative viability ([9]; first compound 2.53 µM): 0.927 | relative viability ([9]; first compound 8 µM): 0.991 | relative viability ([10]; first compound 0.08 µM): 0.106 | relative viability ([10]; first compound 0.8 µM): 0.105 | relative viability ([10]; first compound 2.53 µM): 0.119 | relative viability ([10]; first compound 8 µM): 0.133 | relative viability ([11]; first compound 0.08 µM): 0.469 | relative viability ([11]; first compound 0.8 µM): 0.421 | relative viability ([11]; first compound 2.53 µM): 0.52 | relative viability ([11]; first compound 8 µM): 0.441 | relative viability ([12]; first compound 0.08 µM): 0.412 | relative viability ([12]; first compound 0.8 µM): 0.486 | relative viability ([12]; first compound 2.53 µM): 0.55 | relative viability ([12]; first compound 8 µM): 0.401 | relative viability ([13]; first compound 0.08 µM): 0.901 | relative viability ([13]; first compound 0.8 µM): 0.745 | relative viability ([13]; first compound 2.53 µM): 0.683 | relative viability ([13]; first compound 8 µM): 0.839 | relative viability ([14]; first compound 0.08 µM): 0.523 | relative viability ([14]; first compound 0.8 µM): 0.593 | relative viability ([14]; first compound 2.53 µM): 0.594 | relative viability ([14]; first compound 8 µM): 0.548 | relative viability ([15]; first compound 0.08 µM): 0.26 | relative viability ([15]; first compound 0.8 µM): 0.27 | relative viability ([15]; first compound 2.53 µM): 0.292 | relative viability ([15]; first compound 8 µM): 0.262 | relative viability ([16]; first compound 0.08 µM): 0.356 | relative viability ([16]; first compound 0.8 µM): 0.457 | relative viability ([16]; first compound 2.53 µM): 0.424 | relative viability ([16]; first compound 8 µM): 0.417 | relative viability ([17]; first compound 0.08 µM): 0.269 | relative viability ([17]; first compound 0.8 µM): 0.247 | relative viability ([17]; first compound 2.53 µM): 0.309 | relative viability ([17]; first compound 8 µM): 0.238 | relative viability ([18]; first compound 0.08 µM): 0.612 | relative viability ([18]; first compound 0.8 µM): 0.718 | relative viability ([18]; first compound 2.53 µM): 0.74 | relative viability ([18]; first compound 8 µM): 0.644 | relative viability ([19]; first compound 0.08 µM): 0.366 | relative viability ([19]; first compound 0.8 µM): 0.34 | relative viability ([19]; first compound 2.53 µM): 0.318 | relative viability ([19]; first compound 8 µM): 0.337 | relative viability ([20]; first compound 0.08 µM): 0.716 | relative viability ([20]; first compound 0.8 µM): 0.595 | relative viability ([20]; first compound 2.53 µM): 0.812 | relative viability ([20]; first compound 8 µM): 0.851 | relative viability ([21]; first compound 0.08 µM): 0.262 | relative viability ([21]; first compound 0.8 µM): 0.261 | relative viability ([21]; first compound 2.53 µM): 0.262 | relative viability ([21]; first compound 8 µM): 0.276 | relative viability ([22]; first compound 0.08 µM): 0.377 | relative viability ([22]; first compound 0.8 µM): 0.369 | relative viability ([22]; first compound 2.53 µM): 0.379 | relative viability ([22]; first compound 8 µM): 0.323 | relative viability ([23]; first compound 0.08 µM): 0.363 | relative viability ([23]; first compound 0.8 µM): 0.386 | relative viability ([23]; first compound 2.53 µM): 0.367 | relative viability ([23]; first compound 8 µM): 0.35 | relative viability ([24]; first compound 0.08 µM): 0.298 | relative viability ([24]; first compound 0.8 µM): 0.272 | relative viability ([24]; first compound 2.53 µM): 0.282 | relative viability ([24]; first compound 8 µM): 0.295
